Results reported in patent publication US20020028836A1, “Potassium channel openers” (priority 2000, published 2002).
Like-named read-outs stand apart in the source and are kept apart here.

Experiments:
[1] = system: primary cultured guinea-pig urinary bladder (GPB) cells; experiment: Membrane hyperpolarization (MHP) assay, DiBAC(4)3 / FLIPR; assay type: cell-based; details: Cavia porcellus; for EC50: concentration that elicits 50% of the maximal response for the test sample; for Emax: maximal steady-state hyperpolarization, normalized to response with 10 μM P1075 (100%)
Protocol: Compounds were evaluated for potassium channel opening activity using primary cultured guinea-pig urinary bladder (GPB) cells.
For the preparation of urinary bladder smooth muscle cells, urinary bladders were removed from male guinea-pigs (Hartley, Charles River, Wilmington, Mass.) weighing 300-400 g and placed in ice-cold Ca^2+-free Krebs solution (Composition, mM: KCl, 2.7; KH2PO4, 1.5; NaCl, 75; Na2HPO4, 9.6; Na2HPO4.7H2O, 8; MgSO4, 2; glucose, 5; HEPES, 10; pH 7.4). Cells were isolated by enzymatic dissociation as previously described with minor modifications (Klockner, U. and Isenberg, G., Pflugers Arch. (1985), 405, 329-339), hereby incorporated by reference. The bladder was cut into small sections and incubated in 5 mL of the Kreb's solution containing I mg/mL collagenase (Sigma, St. Louis, Mo.) and 0.2 mg/mL pronase (Calbiochem, La Jolla, Calif.) with continuous stirring in a cell incubator for 30 minutes. The mixture was then centrifuged at 1300×g for 5 minutes, and the pellet resuspended in Dulbecco's PBS (GIBCO, Gaithersburg, Md.) and recentrifuged to remove residual enzyme. The cell pellet was resuspended in 5 mL growth media (composition: Dulbecco's modified Eagle's medium supplemented with 10% fetal bovine serum, 100 units/mL penicillin, 100 units/mL streptomycin and […] amphotericin B) and further dissociated by pipetting the suspension through a flame-polished Pasteur pipette and passing it through a polypropylene mesh membrane (Spectrum, Houston, Tex.). The cell density was adjusted to 100,000 cells/mL by resuspension in growth media. Cells were plated in clear-bottomed black 96-well plates (Packard) for membrane potential studies at a density of 20,000 cells/well and maintained in a cell incubator with 90% air: 10% CO2 until confluent. Cells were confirmed to be of smooth muscle type by cytoskeletal staining using a monoclonal mouse anti human-α-smooth muscle actin (Biomeda, Foster City, Calif.).
Functional activity at potassium channels was measured by evaluating changes in membrane potential using the bis-oxonol dye DiBAC(4) (Molecular Probes) in a 96-well cell-based kinetic assay system, Fluorescent Imaging Plate Reader (FLIPR) (K. S. Schroeder et al., J. Biomed. Screen., v. 1 pp. 75-81 (1996)), hereby incorporated by reference. DiBAC(4)3 is an anionic potentiometric probe which partitions between cells and extracellular solution in a membrane potential-dependent manner. With increasing membrane potential (for example, K^+ depolarization), the probe further partitions into the cell; this is measured as an increase in fluorescence due to dye interaction with intracellular lipids and proteins. Conversely, decreasing membrane potential (hyperpolarization by potassium channel openers) evokes a decrease in fluorescence.
Confluent guinea-pig urinary bladder cells cultured in black clear-bottomed 96-well plates were rinsed twice with […] assay buffer (composition, mM: HEPES, 20; NaCl, 120; KCl, 2; CaCl2, 2; MgCl2, 1; glucose, 5; pH 7.4 at 25° C.) containing 5 μM DiBAC(4)3 and incubated with […] of the buffer in a cell incubator for 30 minutes at 37° C. to ensure dye distribution across the membrane. After recording the baseline fluorescence for 5 minutes, the reference or test compounds, prepared at 10 times the concentration in the assay buffer, were added directly to the wells. Changes in fluorescence were monitored for an additional 25 minutes. Hyperpolarization responses were corrected for any background noise and were normalized to the response observed with 10 μM of the reference compound P1075 (assigned as 100%), a potent opener of smooth muscle KATP channels (Quast et al., Mol. Pharmacol., v. 43 pp. 474-481 (1993)), hereby incorporated by reference.
Routinely, five concentrations of P1075 or test compounds (log or half-log dilutions) were evaluated and the maximal steady-state hyperpolarization values (expressed as % relative to P1075) plotted as a function of concentration. […]

[2] = system: tissue strips obtained from Landrace pig bladders; experiment: Functional potassium channel opening activity in isolated bladder strips (field-stimulated twitch); details: for Index: ED50 for P1075 divided by ED50 for the test agonist in a given tissue, averaged; for EC50: amount of agent necessary to cause 50% of the agent's maximal response, read-out: ED50 (the source's name)
Procedure, shortened: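 Mucosa-free female Landrace pig bladder strips in Krebs Ringer bicarbonate (pH 7.4, 37° C., 0.004 mM propranolol), 1.0 g preload, field-stimulated at 0.05 Hz, 0.5 ms, 20 V for twitch. Cumulative concentration-response curves; maximal efficacy as % of P1075, ED50 fitted, potency index = P1075 ED50/test ED50 per tissue, averaged.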

[3] = Sus scrofa, maximal efficacy relative to P1075, field stimulation 0.05 Hz, 0.5 ms, 20 volts

| SMILES | EC50 [1] [µM] | Emax [1] [%] | Index [2] | EC50 ([2]; Sus scrofa) [µM] | Emax [2, 3] [%] | EC50 [2] [µM] | Efficacy (% P1075) ([2]; maximal efficacy relative to P1075, field stimulation 0.05 Hz, 0.5 ms, 20 volts) |
| --- | --- | --- | --- | --- | --- | --- | --- |
| Cc1ccc(C(=O)N[C@H](NC(=S)Nc2cccnc2)C(C)(C)C)cc1 [Example 23, N-((1R)-2,2-dimethyl-1-{[(3-pyridinylamino)carbothioyl]amino}propyl)-4-methylbenzamide] | 3.96 | 66 | 0.009 | 16 | 100 |  |  |
| Cc1ccc(C(=O)N[C@@H](NC(=S)Nc2cccnc2)C(C)(C)C)cc1 [Example 24, N-((1S)-2,2-dimethyl-1-{[(3-pyridinylamino)carbothioyl]amino}propyl)-4-methylbenzamide] | 0.08 | 93 | 0.007 | 17 | 100 |  |  |
| Cc1ccc(C(=O)NC(NC(=S)Nc2cccc([N+](=O)[O-])c2)C(C)(C)C)cc1 (centres unmarked) [Example 25, N-(2,2-dimethyl-1-{[(3-nitroanilino)carbothioyl]amino}propyl)-4-methylbenzamide] | 0.07 | 103 | 0.078 | 1 | 100 |  |  |
| CC(C)(C)C(NC(=O)c1ccc(Cl)cc1)NC(=S)Nc1cccnc1 (centres unmarked) [Example 27, 4-chloro-N-(2,2-dimethyl-1-{[(3-pyridinylamino)carbothioyl]amino}propyl)benzamide] | 0.1 | 80 | 0.009 | 25 | 94 |  |  |
| CC(C)(C)C(NC(=O)c1ccccc1)NC(=S)Nc1cccnc1 (centres unmarked) [Example 28, N-(2,2-dimethyl-1-{[(3-pyridinylamino)carbothioyl]amino}propyl)benzamide] | 0.5 | 77 | 0.004 | 42 | 100 |  |  |
| Cc1ccc(C(=O)NC(NC(=S)Nc2cccc([N+](=O)[O-])c2)c2ccccc2)cc1 (centres unmarked) [Example 33, 4-methyl-N-[{[(3-nitroanilino)carbothioyl]amino}(phenyl)methyl]benzamide] | 0.22 | 102 | 0.027 | 12 | 80 |  |  |
| Cc1ccc(C(=O)NC(NC(=S)Nc2cccnc2)c2ccccc2)cc1 (centres unmarked) [Example 34, 4-methyl-N-(phenyl{[(3-pyridinylamino)carbothioyl]amino}methyl)benzamide] | 0.5 | 80 | 0.003 | 23 | 99 |  |  |
| Cc1ccc(C(=O)NC(NC(=O)Nc2cccnc2)C(Cl)(Cl)Cl)cc1 (centres unmarked) [Example 38, 4-methyl-N-(2,2,2-trichloro-1-{[(3-pyridinylamino)carbonyl]amino}ethyl)benzamide] | 0.1 | 100 | 0.015 | 7 | 98 |  |  |
| O=C(Nc1cccnc1)NC(NC(=O)c1ccccc1)C(Cl)(Cl)Cl (centres unmarked) [Example 40, N-(2,2,2-trichloro-1-{[(3-pyridinylamino)carbonyl]amino}ethyl)benzamide] | 0.12 | 100 | 0.007 | 15 | 100 |  |  |
| Cc1ccc(C(=O)NC(NC(=NC#N)Nc2cccnc2)C(Cl)(Cl)Cl)cc1 (centres unmarked) [Example 44, 4-methyl-N-(2,2,2-trichloro-1-{[(cyanoimino)(3-pyridinylamino)methyl]amino}ethyl)benzamide] | 0.04 | 103 | 0.040 | 2 | 95 |  |  |
| Cc1ccc(C(=O)NC(NC(=NC#N)Nc2ccccc2F)C(Cl)(Cl)Cl)cc1 (centres unmarked) [Example 47, 4-methyl-N-(2,2,2-trichloro-1-{[(cyanoimino)(2-fluoroanilino)methyl]amino}ethyl)benzamide] | 0.06 | 98 | 0.019 | 36 | 67 |  |  |
| N#CN=C(Nc1cccnc1)NC(NC(=O)c1ccccc1)C(Cl)(Cl)Cl (centres unmarked) [Example 49, N-(2,2,2-trichloro-1-{[(cyanoimino)(3-pyridinylamino)methyl]amino}ethyl)benzamide] | 0.04 | 92 | 0.031 | 3 | 100 |  |  |
| Cc1ccccc1C(=O)NC(NC(=NC#N)Nc1cccnc1)C(Cl)(Cl)Cl (centres unmarked) [Example 50, 2-methyl-N-(2,2,2-trichloro-1-{[(cyanoimino)(3-pyridinylamino)methyl]amino}ethyl)benzamide] | 0.1 | 92 | 0.007 | 17 | 90 |  |  |
| C=CC(C)(C)CC(NC(=O)c1ccc(Cl)cc1)NC(=NC#N)Nc1cccnc1 (centres unmarked) [Example 92, 4-chloro-N-(1-{[(cyanoimino)(3-pyridinylamino)methyl]amino}-3,3-dimethyl-4-pentenyl)benzamide] | 0.25 | 71 | 0.047 | 1.8 | 76 |  |  |
| CC(C)(C)OC(=O)N1CCC[C@@H]1[C@@H](NC(=O)c1ccc(Cl)cc1)NC(=NC#N)Nc1cccnc1 [Example 98, Tert-butyl (2R)-2-((R)-[(4-chlorobenzoyl)amino]{[(cyanoimino)(3-pyridinylamino)methyl]amino}methyl)-1-pyrrolidinecarboxylate] | 1.1 | 62 | 0.004 | 33 | 30 |  |  |
| CC(C)(C)C(NC(=O)c1ccc(I)cc1)NC(=NC#N)Nc1cccnc1 (centres unmarked) [Example 103, N-(1-{[(cyanoimino)(3-pyridinylamino)methyl]amino}-2,2-dimethylpropyl)-4-iodobenzamide] | 0.05 | 103 | 0.450 | 2.4 | 83 |  |  |
| CC(C)(C)C(NC(=O)c1ccc(Cl)cc1F)NC(=NC#N)Nc1cccnc1 (centres unmarked) [Example 106, 4-chloro-N-(1-{[(cyanoimino)(3-pyridinylamino)methyl]amino}-2,2-dimethylpropyl)-2-fluorobenzamide] | 0.63 | 85 | 0.010 | 12 | 69 |  |  |
| CC(C)(C)C(NC(=O)c1ccc(Cl)cc1)NC(=N[N+](=O)[O-])Nc1cccnc1 (centres unmarked) [Example 123, 4-chloro-N-(1-{[(nitroimino)(3-pyridinylamino)methyl]amino}-2,2-dimethylpropyl)benzamide] | 0.85 | 90 | 0.028 | 10 | 63 |  |  |
| CC(C)(C)CC(NC(=O)c1ccc(Cl)cc1)NC(=N[N+](=O)[O-])Nc1cccnc1 (centres unmarked) [Example 124, 4-chloro-N-(1-{[(nitroimino)(3-pyridinylamino)methyl]amino}-3,3-dimethylbutyl)benzamide] | 0.11 | 98 | 0.012 |  |  | 9.3 | 47 |
